10 compounds from PubChem BioAssay AID1963838 (Molecular Pharmacology Branch, DTP, NCI, 2024) can be followed below.

The assay relates to 855422-203-R-J1-PDC complex spheroid viability. In words: Anticancer human tumor 855422-203-R-J1-PDC patient-derived bladder carcinoma cell line growth inhibition [POLQ]. The settings on record: for viability, T/C: stronger effect = lower value. How it is done: Multicellular complex tumor spheroid response to Polymerase (POL) inhibitors (novobiocin, ART-558, RP6685) in combination with a variety of drugs and investigational agents in selected tumor cell lines
The POL inhibitors (novobiocin, ART-558, and RP6685) were evaluated both individually and in combination with standard of care and investigational anticancer small molecules within a complex spheroid model of solid tumors. . Complex spheroids include a stromal component modeled by human endothelial cells (HUVEC) and fibroblasts modeled by human mesenchymal stem cells (MSCs). The concentration ranges selected for each drug and investigational agent were based upon clinically achievable concentrations if the clinical Cmax of the agent was known.
Compounds. The drugs and investigational agents: novobiocin (NSC847541), ART-558 (NSC835418), RP-6685 (NSC848927), peposertib (NSC802822), ceralasertib (NSC780249), elimusertib (NSC800525), camonsertib (NSC841442), AZD-1390 (NSC803789), olaparib (NSC753686), talazoparib (NSC767125), rucaparib (NSC756644), sotorasib (NSC818433), MRTX-1133 (NSC836407), SN-38 (NSC673596), topotecan (NSC609699), epotoside (NSC141540), doxorubicin (NSC123127), gemcitabine (NSC613327), 5-fluorouracil (NSC19893), paclitaxel (NSC125973), vemurafenib (NSC761431), MSA-2 (NSC828583), SN-011 (NSC837082), adavosertib (NSC754352), prexasertib (NSC758257), carboplatin (NSC241240) and oxaliplatin (NSC266046), were obtained from the National Cancer Institute (NCI) Developmental Therapeutics Program Chemical Repository (21). The FDA-approved anticancer drug set is available from the Developmental Therapeutics Program at https://dtp.cancer.gov/organization/dscb/obtaining/. […] The stock solutions were prepared in dimethyl sulfoxide (DMSO, Sigma-Aldrich, St. Louis, MO, cat. D2650), except for the platinum compounds which were prepared in saline (Quality Biological, Gaithersburg, MD, cat. 114-055-101), at 800-fold the tested concentration and stored at -70 degrees C prior to their use. All drugs and investigational agents were tested over a range starting from a high concentration at or near the clinical Cmax and decreasing in half-log increments. If the clinical Cmax for an agent had not been determined, the highest concentration tested was 10 microM, except for SN-38, which was tested at a high concentration of 1 microM.
Cell Culture. All cells were maintained in an incubator at 37 degrees C and 5% CO2 with 95% humidity. The PDC lines were cultured according to standard operating procedures established by the NCI PDMR (https://pdmr.cancer.gov). Table 3 of the manuscript, lists the cell lines along with the number of the three cell types plated to form the mct-spheroids and media for tumor cell growth. After thawing, all PDC lines, except 997537-175-T-J1-PDC and 415267-285-R-J2-PDC, were cultured in Matrigel-coated flasks prepared with a working solution of 1X Ham's F-12 nutrient mix, without supplementation (Thermo Fisher Scientific, cat. 11765054), 100 U/mL penicillin-streptomycin (Thermo Fisher Scientific, cat. 15140122), and 2.5% Matrigel (Corning Inc., Corning, NY, cat. 354248) for the first three passages. The two PDC lines 997537-175-T-J1-PDC and 415267-285-R-J2-PDC were cultured on uncoated flasks. The 857933-349-R-J2-PDC line was cultured in 6C/Colon 1B media containing advanced DMEM/F-12 (Thermo Fisher Scientific, cat. 12634028), 10 mM HEPES (Thermo Fisher Scientific, cat. 15630080), 1X GlutaMAX supplement (Thermo Fisher Scientific, cat. 35050061), 0.1 mg/mL primocin (InvivoGen, San Diego, CA, cat. ant-pm-2), 10% defined fetal bovine serum, heat inactivated (HyClone Laboratories Inc., Logan, UT, cat. SH30070.03HI), 50% L-WRN conditioned media (ATCC, cat. CRL-3276), 1.25 mM N-Acetyl-L-cysteine (Sigma-Aldrich, cat. A9165), 10 mM nicotinamide (Sigma-Aldrich, cat. N0636), 1X B-27 supplement (Thermo Fisher Scientific, cat. 17504044), 1X N-2 supplement (Thermo Fisher Scientific, cat. […]

“And” between values parts separate entries of the source, which are not always exact repeats. Identical values can stand only once.
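Further: spheroids exposed to compounds for seven days before readout.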

The term viability, T/C denotes the result in the treated group divided by that in the control group, in per cent. The IC50 is the concentration at which inhibition is half-maximal. With `C=CCn1c(=O)c2cnc(Nc3ccc(N4CCN(C)CC4)cc3)nc2n1-c1cccc(C(C)(C)O)n1`, the viability, T/C is 100% and 104% and 107% (compound 0.00316 µM); 100% and 120% and 111% (compound 0.01 µM); 106% and 108% and 122% (compound 0.0316 µM); 90.9% and 98.5% and 98% (compound 0.1 µM); 118% and 116% and 99.9% (compound 0.316 µM); 94.8% and 187% and 136% (compound 1 µM). Besides, the IC50 (curve of compound) is over 1 µM.

For `CC(=O)O[C@H]1C(=O)[C@@]2(C)[C@H]([C@H](OC(=O)c3ccccc3)[C@]3(O)C[C@H](OC(=O)[C@H](O)[C@@H](NC(=O)c4ccccc4)c4ccccc4)C(C)=C1C3(C)C)[C@]1(OC(C)=O)CO[C@@H]1C[C@@H]2O`, the viability, T/C (compound 0.00949 µM) is 13.3% and 11.4% and 6.22%; the viability, T/C (compound 0.03 µM) is 9.21% and 8.32% and 5.81%; the viability, T/C (compound 0.0949 µM) is 10.3% and 7.91% and 5.5%; the viability, T/C (compound 0.3 µM) is 7.66% and 7.33% and 5.13%; the viability, T/C (compound 0.949 µM) was 6.14% and 7.78% and 6.34%; the viability, T/C (compound 3 µM) was 7.69% and 7.6% and 7.01%. In addition, where the note is “curve of compound”, the IC50 was under 0.00949 µM.

As for `CC(C)n1c(=O)n(C)c2cnc3cc(F)c(-c4ccc(OCCCN5CCCCC5)nc4)cc3c21`, the viability, T/C by setting is: (compound 0.0316 µM) 100% and 106% and 98.1%; (compound 0.1 µM) 96.9% and 119% and 91.5%; (compound 0.316 µM) 103% and 111% and 98.1%; (compound 1 µM) 97.5% and 101% and 93%; (compound 3.16 µM) 83.8% and 95.1% and 86.4%; (compound 10 µM) 56.6% and 97.9% and 74.8%. Besides, the IC50 (curve of compound) was over 10 µM.

As for `CC1COCCN1c1cc(-c2ccnn2C)c2ccnc(-c3ccn[nH]3)c2n1` (centres undefined), the viability, T/C was 99.3% and 108% and 116% (compound 0.0316 µM); 70.3% and 81.8% and 110% (compound 0.1 µM); 23.4% and 22.9% and 30.8% (compound 0.316 µM); 11.2% and 11% and 16.2% (compound 1 µM); 8.42% and 8.52% and 10.7% (compound 3.16 µM); 6.55% and 7.74% and 10.3% (compound 10 µM). Further, the 50% inhibitory concentration (IC50) (curve of compound) is 0.165 µM and 0.186 µM and 0.239 µM.

On to `CC1COCCN1c1cc(C2(S(C)(=N)=O)CC2)nc(-c2ccnc3[nH]ccc23)n1` (centres undefined), for which the viability, T/C (compound 0.0316 µM) is 97.2% and 103% and 97.7%; the viability, T/C (compound 0.1 µM) was 101% (2×) and 94.1%; the viability, T/C (compound 0.316 µM) is 109% and 115% and 116%; the viability, T/C (compound 1 µM) was 97.7% and 154% and 117%; the viability, T/C (compound 3.16 µM) was 37.8% and 46% and 35.8%; the viability, T/C (compound 10 µM) was 9.87% and 13% and 14.6%. Also, for the setting “curve of compound”, the IC50 was 2.5 µM and 2.96 µM and 2.52 µM.

For `CCCS(=O)(=O)Nc1ccc(F)c(C(=O)c2c[nH]c3ncc(-c4ccc(Cl)cc4)cc23)c1F`, the viability, T/C (compound 0.0316 µM) was 106% and 96.3% and 94.9%; the viability, T/C (compound 0.1 µM) was 97.9% and 102% and 107%; the viability, T/C (compound 0.316 µM) is 117% and 97.8% and 105%; the viability, T/C (compound 1 µM) was 96.7% and 100% and 109%; the viability, T/C (compound 3.16 µM) is 113% (2×) and 108%; the viability, T/C (compound 10 µM) was 7.16% and 6.83% and 1.07%. Besides, the IC50 (curve of compound) is 6.08 µM and 5.93 µM and 5.81 µM.

`CC[C@@]1(O)C(=O)OCc2c1cc1n(c2=O)Cc2cc3c(CN(C)C)c(O)ccc3nc2-1`: the viability, T/C runs as follows: (compound 0.000316 µM) 113% and 104% and 102%; (compound 0.001 µM) 102% (2×) and 109%; (compound 0.00316 µM) 105% and 98.4% and 122%; (compound 0.01 µM) 90.4% and 90% and 93.3%; (compound 0.0316 µM) 54.6% and 99.2% and 57.2%; (compound 0.1 µM) 10.1% and 17.6% and 11.1%. Further, the IC50 (curve of compound) was 0.0359 µM and 0.0631 µM and 0.0371 µM.

`CCc1c2c(nc3ccc(O)cc13)-c1cc3c(c(=O)n1C2)COC(=O)[C@]3(O)CC`: the viability, T/C is 51.3% and 111% and 38.4% (compound 0.00316 µM); 12.8% and 30.6% and 13.8% (compound 0.01 µM); 6.94% and 13.9% and 6.52% (compound 0.0316 µM); 5.24% and 8.86% and 5.52% (compound 0.1 µM); 3.34% and 4.22% (2×) (compound 0.316 µM); 1.24% and 3.11% and 2.06% (compound 1 µM). Also, the IC50 (curve of compound) is 0.00329 µM and 0.0077 µM and < 0.00316 µM.

For `CNCc1ccc(-c2[nH]c3cc(F)cc4c3c2CCNC4=O)cc1`, the viability, T/C is 98.8% and 101% and 112% (compound 0.0316 µM); 98.1% and 100% and 101% (compound 0.1 µM); 114% and 108% and 99.2% (compound 0.316 µM); 115% and 103% and 99.8% (compound 1 µM); 105% and 88.8% and 114% (compound 3.16 µM); 114% and 137% and 126% (compound 10 µM). The IC50 (curve of compound) was over 10 µM.

Regarding `COC1C(OC(N)=O)C(O)C(Oc2ccc3c(O)c(NC(=O)c4ccc(O)c(CC=C(C)C)c4)c(=O)oc3c2C)OC1(C)C` (centres undefined), the viability, T/C is 105% [middle of 13 runs] (compound 0.0316 µM); 108% [middle of 13 runs] (compound 0.1 µM); 111% [middle of 13 runs] (compound 0.316 µM); 106% [middle of 13 runs] (compound 1 µM); 104% [middle of 13 runs] (compound 3.16 µM). The IC50 (compound alone, run of 01/08/2024) was over 10 µM.
